Measurements reported in article PMC9865890, “N-Derivatives of (Z)-Methyl 3-(4-Oxo-2-thioxothiazolidin-5-ylidene)methyl)-1H-indole-2-carboxylates as Antimicrobial Agents—In Silico and In Vitro Evaluation” (Pharmaceuticals, 2023).
Converted amounts (≈) assume the structure as drawn. Where two headings read alike, the source gives them in different places.

Experiments:
[1] = test system: Penicillium verrucosum var. cyclopium (food isolate); experiment: Antifungal bioassay (MIC/MFC); format: cell-based
Protocol: For the antifungal bioassays, six fungi were used: Aspergillus niger (ATCC 6275), Aspergillus fumigatus (ATCC 1022), Aspergillus versicolor (ATCC 11730), Penicillium funiculosum (ATCC 36839), Trichoderma viride (IAM 5061), and Penicillium verrucosum var. cyclopium (food isolate). The organisms were obtained from the Mycological Laboratory, Department of Plant Physiology, Institute for Biological Research “Siniša Stankovic”, Belgrade, Serbia. All experiments were performed in duplicate.

[2] = test system: Aspergillus niger (ATCC 6275); experiment: Antifungal bioassay (MIC/MFC); format: cell-based; details: ATCC6275, A.n. (A. niger)
Protocol: (§1) For the antifungal bioassays, six fungi were used: […] The organisms were obtained from the Mycological Laboratory, Department of Plant Physiology, Institute for Biological Research “Siniša Stankovic”, Belgrade, Serbia. All experiments were performed in duplicate.

[3] = test system: Aspergillus fumigatus (ATCC 1022); experiment: Antifungal bioassay (MIC/MFC); format: cell-based; details: ATCC1022, A.f. (A. fumigatus)
Protocol: as §1

[4] = test system: Aspergillus versicolor (ATCC 11730); experiment: Antifungal bioassay (MIC/MFC); format: cell-based; details: ATCC11730, A.v. (A. versicolor)
Protocol: as §1

A. ochraceus = experiment: Antifungal bioassay (MIC/MFC); format: cell-based; details: A.o. (A. ochraceus)
Protocol: as §1

[5] = test system: Penicillium funiculosum (ATCC 36839); experiment: Antifungal bioassay (MIC/MFC); format: cell-based; details: Talaromyces funiculosus, ATCC36839; P.f. (P. funiculosum)
Protocol: as §1

[6] = test system: Trichoderma viride (IAM 5061); experiment: Antifungal bioassay (MIC/MFC); format: cell-based; details: T.v. (T. viride)
Protocol: as §1

P. ochrochloron = experiment: Antifungal bioassay (MIC/MFC); format: cell-based; details: for MIC: P.o. (P. ochrochloron; text: P. ochramensis); for MFC: P.o. (P. ochrochloron)
Protocol: as §1

[7] = test system: Listeria monocytogenes (NCTC 7973); experiment: Antibacterial microdilution (MIC/MBC); format: cell-based; details: L.m. (L. monocytogenes)
Protocol: (§2) The synthesized compounds (Table 1) were evaluated for their antibacterial activity against a panel of eight species using a microdilution method with ampicillin and streptomycin as reference drugs. […] The order of activity can be presented as: 8 > 11 > 2 > 1 > 12 > 3 > 17 > 7 > 5 > 13 > 14 > 16 > 9 > 4 = 6 > 15 > 10. […] Cloacae. […] The most sensitive bacteria appeared to be En. cloacae, while E. coli was the most resistant one, followed by M. flavus.
(§3) The following Gram-negative bacteria: Escherichia coli (ATCC 35210), Enterobacter cloacae (clinical isolate), Salmonella typhimurium (ATCC 13311), as well as Gram-positive bacteria: Listeria monocytogenes (NCTC 7973), Bacillus cereus (clinical isolate), and Staphylococcus aureus (ATCC 6538) were used. The organisms were obtained from the Mycological Laboratory, Department of Plant Physiology, Institute for Biological Research “Siniša Stankovic”, Belgrade, Serbia. The minimum inhibitory (MIC) and minimum bactericidal (MBC) concentrations were determined by the modified microdilution method, as previously reported.

[8] = test system: Staphylococcus aureus (ATCC 6538); experiment: Antibacterial microdilution (MIC/MBC); format: cell-based; details: Staphylococcus aureus, ATCC6538, S.a. (S. aureus); for MIC: read-out: MIC
Protocol: as §2, §3

P. aeruginosa = experiment: Antibacterial microdilution (MIC/MBC); format: cell-based; details: Pseudomonas aeruginosa, P.a. (P. aeruginosa); for MIC: read-out: MIC
Protocol: as §2, §3

[9] = test system: Bacillus cereus (clinical isolate); experiment: Antibacterial microdilution (MIC/MBC); format: cell-based; details: Bacillus cereus, B.c. (B. cereus); for MIC: read-out: MIC
Protocol: as §2, §3

[10] = test system: Escherichia coli (ATCC 35210); experiment: Antibacterial microdilution (MIC/MBC); format: cell-based; details: Escherichia coli, ATCC35210, E. coli; for MIC: read-out: MIC
Protocol: as §2, §3

[11] = test system: Salmonella typhimurium (ATCC 13311); experiment: Antibacterial microdilution (MIC/MBC); format: cell-based; details: Salmonella enterica, S.t. (S. typhimurium); for MIC: read-out: MIC
Protocol: as §2, §3

[12] = test system: Enterobacter cloacae (clinical isolate); experiment: Antibacterial microdilution (MIC/MBC); format: cell-based; details: Enterobacter cloacae, En.cl (En. cloacae); for MIC: read-out: MIC
Protocol: as §2, §3

M. flavus = experiment: Antibacterial microdilution (MIC/MBC); format: cell-based; details: Micrococcus flavus; M.f. (M. flavus)
Protocol: as §2, §3

[13] = Aspergillus ochraceus, read-out: MIC
[14] = Trichoderma viride, IAM5061, read-out: MIC
[15] = Penicillium ochrochloron, read-out: MIC
[16] = Listeria monocytogenes, NCTC7973
[17] = Listeria monocytogenes, NCTC7973, read-out: MIC

SMILES	MFC [1]	MIC [1]	MFC [2]	MIC [2]	MFC [3]	MIC [3]	MFC [4]	MIC [4]	MFC (A. ochraceus; Aspergillus ochraceus)	MIC (A. ochraceus; [13])	MFC [5]	MIC [5]	MIC [6]	MFC ([6]; Trichoderma viride, IAM5061)	MIC [6, 14]	MFC (P. ochrochloron; Penicillium ochrochloron)	MIC (P. ochrochloron; [15])	MBC [7, 16]	MIC [7, 17]	MBC [8]	also measured
COC(=O)c1[nH]c2ccc(F)cc2c1/C=C1\SC(=S)N(c2ccc(O)cc2)C1=O [Compound 10, (Z)-methyl 5-fluoro-3-((3-(4-hydroxyphenyl)-4-oxo-2-thioxothiazolidin-5-ylidene)methyl)-1H-indole-2-carboxylate]	30 ± 10 µg/mL (≈ 70 µM)	15 ± 3 µg/mL (≈ 35 µM)	15 ± 3 µg/mL (≈ 35 µM)	8 ± 0.6 µg/mL (≈ 18.7 µM)	120 ± 40 µg/mL (≈ 280 µM)	60 ± 6 µg/mL (≈ 140 µM)	15 ± 3 µg/mL (≈ 35 µM)	8 ± 0.6 µg/mL (≈ 18.7 µM)	8 ± 0.6 µg/mL (≈ 18.7 µM)	4 µg/mL (≈ 9.34 µM)	15 ± 3 µg/mL (≈ 35 µM)	8 ± 0.6 µg/mL (≈ 18.7 µM)	4 ± 1 µg/mL (≈ 9.34 µM)	8 ± 0.6 µg/mL (≈ 18.7 µM)	4 µg/mL (≈ 9.34 µM)	15 ± 3 µg/mL (≈ 35 µM)	8 µg/mL (≈ 18.7 µM)	60 ± 6 µg/mL (≈ 140 µM)	30 ± 10 µg/mL (≈ 70 µM)	60 ± 6 µg/mL (≈ 140 µM)	MIC (A. ochraceus): 4 ± 1 µg/mL (≈ 9.34 µM); MIC (P. ochrochloron): 8 ± 0.6 µg/mL (≈ 18.7 µM); MIC [8]: 30 ± 10 µg/mL (≈ 70 µM); MBC (P. aeruginosa): 60 ± 6 µg/mL (≈ 140 µM); MIC (P. aeruginosa): 30 ± 10 µg/mL (≈ 70 µM); MBC [9]: 60 ± 6 µg/mL (≈ 140 µM); MIC [9]: 30 ± 10 µg/mL (≈ 70 µM); MBC [10]: 60 ± 6 µg/mL (≈ 140 µM); MIC [10]: 30 ± 10 µg/mL (≈ 70 µM); MBC [11]: 60 ± 6 µg/mL (≈ 140 µM); MIC [11]: 45 ± 3 µg/mL (≈ 105 µM); MBC [12]: 60 ± 6 µg/mL (≈ 140 µM); MIC [12]: 30 ± 10 µg/mL (≈ 70 µM); MBC (M. flavus): 60 ± 6 µg/mL (≈ 140 µM); MIC (M. flavus): 45 ± 3 µg/mL (≈ 105 µM); melting point: 267 to 268 °C
COC(=O)c1[nH]c2ccccc2c1/C=C1\SC(=S)N(C(C(=O)O)C(C)C)C1=O (centres unmarked) [Compound 12, (Z)-2-(5-((2-(methoxycarbonyl)-1H-indol-3-yl)methylene)-4-oxo-2-thioxothiazolidin-3-yl)-3-methylbutanoic acid]	60 ± 6 µg/mL (≈ 143 µM)	30 ± 10 µg/mL (≈ 71.7 µM)	30 ± 10 µg/mL (≈ 71.7 µM)	22 ± 5 µg/mL (≈ 52.6 µM)	120 ± 40 µg/mL (≈ 287 µM)	60 ± 6 µg/mL (≈ 143 µM)	15 ± 3 µg/mL (≈ 35.8 µM)	8 ± 0.6 µg/mL (≈ 19.1 µM)	15 ± 3 µg/mL (≈ 35.8 µM)	8 ± 0.6 µg/mL (≈ 19.1 µM)	30 ± 10 µg/mL (≈ 71.7 µM)	15 ± 3 µg/mL (≈ 35.8 µM)	8 ± 0.6 µg/mL (≈ 19.1 µM)	15 ± 3 µg/mL (≈ 35.8 µM)	8 µg/mL (≈ 19.1 µM)	30 ± 10 µg/mL (≈ 71.7 µM)	15 ± 3 µg/mL (≈ 35.8 µM)	30 ± 10 µg/mL (≈ 71.7 µM)	15 µg/mL (≈ 35.8 µM)	60 ± 6 µg/mL (≈ 143 µM)	MIC [7]: 15 ± 1 µg/mL (≈ 35.8 µM); MIC [8]: 30 ± 10 µg/mL (≈ 71.7 µM); MBC (P. aeruginosa): 30 ± 10 µg/mL (≈ 71.7 µM); MIC (P. aeruginosa): 15 ± 9 µg/mL (≈ 35.8 µM); MBC [9]: 60 ± 6 µg/mL (≈ 143 µM); MIC [9]: 30 ± 10 µg/mL (≈ 71.7 µM); MBC [10]: 30 ± 10 µg/mL (≈ 71.7 µM); MBC [11]: 8 ± 9 µg/mL (≈ 19.1 µM); MBC [12]: 60 ± 6 µg/mL (≈ 143 µM); MIC [12]: 15 µg/mL (≈ 35.8 µM); MBC (M. flavus): 60 ± 6 µg/mL (≈ 143 µM); MIC (M. flavus): 30 ± 10 µg/mL (≈ 71.7 µM); melting point: 256 to 258 °C
COC(=O)c1[nH]c2ccc(F)cc2c1/C=C1\SC(=S)N(C)C1=O [Compound 15, (Z)-methyl 5-fluoro-3-((3-methyl-4-oxo-2-thioxothiazolidin-5-ylidene)methyl)-1H-indole-2-carboxylate]	15 ± 3 µg/mL (≈ 42.8 µM)	8 ± 0.6 µg/mL (≈ 22.8 µM)	15 ± 3 µg/mL (≈ 42.8 µM)	8 ± 0.6 µg/mL (≈ 22.8 µM)	30 ± 10 µg/mL (≈ 85.6 µM)	15 ± 3 µg/mL (≈ 42.8 µM)	15 ± 3 µg/mL (≈ 42.8 µM)	8 ± 0.6 µg/mL (≈ 22.8 µM)	15 ± 3 µg/mL (≈ 42.8 µM)	8 ± 0.6 µg/mL (≈ 22.8 µM)	15 ± 3 µg/mL (≈ 42.8 µM)	8 ± 0.6 µg/mL (≈ 22.8 µM)	8 ± 0.6 µg/mL (≈ 22.8 µM)	15 ± 3 µg/mL (≈ 42.8 µM)	8 µg/mL (≈ 22.8 µM)	15 ± 3 µg/mL (≈ 42.8 µM)	8 µg/mL (≈ 22.8 µM)	60 ± 6 µg/mL (≈ 171 µM)	45 ± 3 µg/mL (≈ 128 µM)	30 ± 10 µg/mL (≈ 85.6 µM)	MIC (P. ochrochloron): 8 ± 0.6 µg/mL (≈ 22.8 µM); MIC [8]: 22 ± 5 µg/mL (≈ 62.8 µM); MBC (P. aeruginosa): 60 ± 6 µg/mL (≈ 171 µM); MIC (P. aeruginosa): 30 ± 10 µg/mL (≈ 85.6 µM); MBC [9]: 60 ± 6 µg/mL (≈ 171 µM); MIC [9]: 30 ± 10 µg/mL (≈ 85.6 µM); MBC [10]: 60 ± 6 µg/mL (≈ 171 µM); MIC [10]: 45 ± 3 µg/mL (≈ 128 µM); MBC [11]: 60 ± 6 µg/mL (≈ 171 µM); MIC [11]: 45 ± 3 µg/mL (≈ 128 µM); MBC [12]: 60 ± 6 µg/mL (≈ 171 µM); MIC [12]: 30 ± 10 µg/mL (≈ 85.6 µM); MBC (M. flavus): 60 ± 6 µg/mL (≈ 171 µM); MIC (M. flavus): 45 ± 3 µg/mL (≈ 128 µM); melting point: 234 to 244 °C
